Active and inactive are the calls of the source. The calls are words filed in the database; no cut-off is given here.
Tests used:
[1] = target: Delta-type opioid receptor (Homo sapiens) (UniProt P41143); test: Displacement of [3H]DADLE from human delta-opioid receptor stably expressed in HEK cell membrane after 90 mins by scintillation counting method; type: cell membranes; details: HEK293
[2] = target: Alpha-2C adrenergic receptor (Homo sapiens, UniProt P18825); test: Displacement of [3H]Rauwolscine from human recombinant alpha 2C receptor stably expressed in MDCK cells after 90 mins by scintillation counting method; type: cell-based
[3] = target: Alpha-2B adrenergic receptor (Homo sapiens, UniProt P18089); test: Displacement of [3H]Rauwolscine from human recombinant alpha 2B receptor expressed in HEKT cells after 90 mins by scintillation counting method; type: cell-based
[4] = target: Alpha-2A adrenergic receptor (Homo sapiens, UniProt P08913); test: Displacement of [3H]Rauwolscine from human recombinant alpha 2A receptor stably expressed in MDCK cells after 90 mins by scintillation counting method; type: cell-based
[5] = target: T1, 5-hydroxytryptamine receptor 2A (Homo sapiens, UniProt P28223); test: Displacement of [3H]ketanserin from human recombinant 5-HT2A receptor expressed in HEKT cell membrane after 90 mins by scintillation counting method; type: cell-based
[6] = target: T2, 5-hydroxytryptamine receptor 2B (Homo sapiens, UniProt P41595); test: Displacement of [3H]LSD from human recombinant 5-HT2B receptor stably expressed in HEK cell membrane after 90 mins by scintillation counting method; type: cell membranes, HEK293
HEK293 = test: Selectivity ratio of Ki for human recombinant 5-HT2C receptor to Ki for human recombinant 5-HT2B receptor stably expressed in HEK cell membrane; type: cell-based
[7] = target: T2, 5-hydroxytryptamine receptor 2B; test: Antagonist activity at human recombinant 5-HT2B receptor expressed in Flp-In HEK cells in the presence of agonist preincubated for 10 mins by FLIPR based calcium mobilization assay; type: functional, cell-based, HEK293
[8] = target: 5-hydroxytryptamine receptor 1A (Homo sapiens, UniProt P08908); test: Displacement of [3H]Way100635 from human recombinant 5-HT1A receptor stably expressed in CHO cell membrane after 90 mins by scintillation counting method; type: cell membranes
D(3) dopamine receptor = D(3) dopamine receptor (Homo sapiens, UniProt P35462); test: Displacement of [3H]N-methylspiperone from human recombinant dopamine D3 receptor expressed in HEKT cell membrane after 90 mins by scintillation counting method; type: cell membranes
[9] = target: Sodium-dependent dopamine transporter (Homo sapiens, UniProt Q01959); test: Displacement of [3H]WIN35428 from human dopamine transporter stably expressed in HEK293 cells after 30 mins by neurotransmitter transporter uptake assay; type: cell-based
Histamine H1 receptor = Histamine H1 receptor (Homo sapiens, UniProt P35367); test: Displacement of [3H]Pyrilamine from human H1 Histamine receptors stably expressed in HEK cell membrane after 90 mins by scintillation counting method; type: cell membranes, HEK293
Mu-type opioid receptor = Mu-type opioid receptor (Homo sapiens, UniProt P35372); test: Displacement of [3H]DAMGO from human mu-opioid receptor stably expressed in HEK cell membrane after 90 mins by scintillation counting method; type: cell membranes, HEK293
[10] = Displacement of [3H]Pentazocine from Guinea pig sigma 1 receptor after 90 mins by scintillation counting method; set-up: species or system Cavia porcellus
[11] = target: 5-hydroxytryptamine receptor 5A (Homo sapiens) (UniProt P47898); test: Displacement of [3H]LSD from human recombinant 5-HT5A receptor expressed in Flp-In CHO cell membrane after 90 mins by scintillation counting method; type: cell membranes
[12] = target: Alpha-1B adrenergic receptor (Homo sapiens) (UniProt P35368); test: Displacement of [3H]Prazosin from human recombinant alpha 1B receptor expressed in HEKT cell membrane after 90 mins by scintillation counting method; type: cell membranes
[13] = target: Beta-3 adrenergic receptor (Homo sapiens) (UniProt P13945); test: Displacement of [3H]CGP12177 from human recombinant beta 3 receptor expressed in HEK Flp-In cells after 90 mins by scintillation counting method; type: cell-based; details: HEK293
Rattus norvegicus [14] = organism: Rattus norvegicus; test: Displacement of [3H]Flunitrazepam from rat brain BZP after 90 mins by scintillation counting method
Rattus norvegicus [15] = organism: Rattus norvegicus; test: Displacement of [3H]Muscimol from rat brain Gamma-aminobutyric acid type-A receptor after 90 mins by scintillation counting method
[16] = target: Muscarinic acetylcholine receptor M2 (Homo sapiens) (UniProt P08172); test: Displacement of [3H]QNB from human Muscarinic acetylcholine M2 receptor stably expressed in CHO cell after 90 mins by scintillation counting method; type: cell-based
[17] = target: Muscarinic acetylcholine receptor M2 (Homo sapiens) (UniProt P08172); test: Displacement of [3H]NMS from human Muscarinic acetylcholine M2 receptor stably expressed in CHO cell after 90 mins by scintillation counting method; type: cell-based
[18] = target: Muscarinic acetylcholine receptor M3 (Homo sapiens) (UniProt P20309); test: Displacement of [3H]QNB from human Muscarinic acetylcholine M3 receptor stably expressed in CHO cell after 90 mins by scintillation counting method; type: cell-based
[19] = target: Muscarinic acetylcholine receptor M4 (Homo sapiens) (UniProt P08173); test: Displacement of [3H]QNB from human Muscarinic acetylcholine M4 receptor stably expressed in CHO cell after 90 mins by scintillation counting method; type: cell-based
[20] = target: Muscarinic acetylcholine receptor M4 (Homo sapiens) (UniProt P08173); test: Displacement of [3H]NMS from human Muscarinic acetylcholine M4 receptor stably expressed in CHO cell after 90 mins by scintillation counting method; type: cell-based
[21] = target: Muscarinic acetylcholine receptor M5 (Homo sapiens) (UniProt P08912); test: Displacement of [3H]QNB from human Muscarinic acetylcholine M5 receptor stably expressed in CHO cell after 90 mins by scintillation counting method; type: cell-based
[22] = target: Translocator protein (Rattus norvegicus) (UniProt P16257); test: Displacement of [3H]PK11195 from rat brain PBR after 90 mins by scintillation counting method
[23] = target: T3, 5-hydroxytryptamine receptor 2C (Homo sapiens, UniProt P28335); test: Antagonist activity at human recombinant 5-HT2C receptor expressed in Flp-In HEK cells in the presence of agonist preincubated for 10 mins by FLIPR based calcium mobilization assay; type: functional, cell-based, HEK293
T3 sequence (P28335 whole entry): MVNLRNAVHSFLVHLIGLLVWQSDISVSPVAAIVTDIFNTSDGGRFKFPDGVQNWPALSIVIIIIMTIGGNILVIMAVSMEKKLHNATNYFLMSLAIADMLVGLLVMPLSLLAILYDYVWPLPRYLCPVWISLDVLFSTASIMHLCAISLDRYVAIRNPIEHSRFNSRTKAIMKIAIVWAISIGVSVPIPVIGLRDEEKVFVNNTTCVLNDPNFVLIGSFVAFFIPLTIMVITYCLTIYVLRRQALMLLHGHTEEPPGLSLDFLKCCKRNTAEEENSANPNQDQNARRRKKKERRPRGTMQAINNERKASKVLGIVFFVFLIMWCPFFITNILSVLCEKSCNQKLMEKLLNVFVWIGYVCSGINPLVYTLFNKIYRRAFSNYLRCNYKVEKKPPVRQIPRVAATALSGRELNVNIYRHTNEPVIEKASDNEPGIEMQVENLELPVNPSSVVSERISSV

[24] = target: T1, 5-hydroxytryptamine receptor 2A; test: Displacement of [3H]ketanserin from human recombinant 5-HT2A receptor expressed in HEKT cell membrane at 10 uM after 90 mins by scintillation counting method; type: cell membranes
[25] = target: T2, 5-hydroxytryptamine receptor 2B; test: Displacement of [3H]LSD from human recombinant 5-HT2B receptor stably expressed in HEK cell membrane at 10 uM after 90 mins by scintillation counting method; type: cell membranes; details: HEK293
[26] = target: T1, 5-hydroxytryptamine receptor 2A; test: Agonist activity at human recombinant 5-HT2A receptor expressed in Flp-In HEK cells preincubated for 10 mins by FLIPR based calcium mobilization assay; type: functional, cell-based; details: HEK293

T2 sequence (P41595 whole entry): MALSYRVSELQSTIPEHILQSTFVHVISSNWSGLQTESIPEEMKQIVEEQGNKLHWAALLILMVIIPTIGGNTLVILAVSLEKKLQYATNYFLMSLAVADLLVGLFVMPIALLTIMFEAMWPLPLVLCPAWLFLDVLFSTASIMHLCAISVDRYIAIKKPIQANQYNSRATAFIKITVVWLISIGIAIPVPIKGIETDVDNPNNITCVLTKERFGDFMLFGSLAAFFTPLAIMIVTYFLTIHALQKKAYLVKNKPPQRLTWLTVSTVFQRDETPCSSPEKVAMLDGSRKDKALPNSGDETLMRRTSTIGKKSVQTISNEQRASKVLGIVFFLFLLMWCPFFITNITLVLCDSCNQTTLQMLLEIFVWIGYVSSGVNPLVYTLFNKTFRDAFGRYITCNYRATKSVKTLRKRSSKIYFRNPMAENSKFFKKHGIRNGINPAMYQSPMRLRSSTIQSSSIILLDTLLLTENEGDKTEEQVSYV
T1 sequence (P28223 whole entry): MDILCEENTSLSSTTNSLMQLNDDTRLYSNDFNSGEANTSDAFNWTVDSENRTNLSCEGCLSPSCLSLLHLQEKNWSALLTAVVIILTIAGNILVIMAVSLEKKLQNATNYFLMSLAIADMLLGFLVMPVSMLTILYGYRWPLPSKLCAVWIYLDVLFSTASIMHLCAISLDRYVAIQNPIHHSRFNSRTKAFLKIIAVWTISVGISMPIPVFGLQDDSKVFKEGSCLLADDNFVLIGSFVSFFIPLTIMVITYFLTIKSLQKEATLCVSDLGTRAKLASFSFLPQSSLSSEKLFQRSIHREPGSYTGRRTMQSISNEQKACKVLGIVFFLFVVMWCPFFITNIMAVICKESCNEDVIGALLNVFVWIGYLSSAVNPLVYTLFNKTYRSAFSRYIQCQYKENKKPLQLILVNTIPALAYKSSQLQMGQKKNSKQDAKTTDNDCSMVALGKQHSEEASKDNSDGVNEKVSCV
Muscarinic acetylcholine receptor M2 (Homo sapiens), sequence (P08172 whole entry): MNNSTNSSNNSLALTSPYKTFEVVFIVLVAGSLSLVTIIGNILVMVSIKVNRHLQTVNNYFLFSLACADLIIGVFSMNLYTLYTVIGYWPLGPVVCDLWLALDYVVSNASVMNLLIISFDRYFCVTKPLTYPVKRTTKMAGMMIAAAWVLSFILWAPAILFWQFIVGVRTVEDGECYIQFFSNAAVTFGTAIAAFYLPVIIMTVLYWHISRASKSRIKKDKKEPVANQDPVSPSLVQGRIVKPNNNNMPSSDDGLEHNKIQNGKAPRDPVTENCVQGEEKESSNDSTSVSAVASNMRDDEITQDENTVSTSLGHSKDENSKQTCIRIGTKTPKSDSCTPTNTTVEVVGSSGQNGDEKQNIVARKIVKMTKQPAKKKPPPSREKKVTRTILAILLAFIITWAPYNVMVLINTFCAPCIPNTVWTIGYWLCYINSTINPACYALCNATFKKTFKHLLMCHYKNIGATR
Muscarinic acetylcholine receptor M4 (Homo sapiens), sequence (P08173 whole entry): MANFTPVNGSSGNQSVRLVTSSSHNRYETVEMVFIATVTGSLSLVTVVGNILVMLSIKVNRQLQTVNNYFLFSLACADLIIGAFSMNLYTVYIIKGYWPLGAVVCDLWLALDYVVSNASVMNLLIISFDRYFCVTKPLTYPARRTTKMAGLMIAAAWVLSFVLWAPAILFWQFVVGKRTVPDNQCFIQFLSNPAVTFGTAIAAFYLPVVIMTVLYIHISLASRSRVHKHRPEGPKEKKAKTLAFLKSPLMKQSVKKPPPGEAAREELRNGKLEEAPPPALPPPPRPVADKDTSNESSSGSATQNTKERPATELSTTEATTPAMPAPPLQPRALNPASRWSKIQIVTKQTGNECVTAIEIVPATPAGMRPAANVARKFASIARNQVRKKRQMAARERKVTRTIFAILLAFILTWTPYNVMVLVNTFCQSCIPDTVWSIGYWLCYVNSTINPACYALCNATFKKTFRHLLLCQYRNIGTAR
Alpha-1B adrenergic receptor (Homo sapiens), sequence (P35368 whole entry): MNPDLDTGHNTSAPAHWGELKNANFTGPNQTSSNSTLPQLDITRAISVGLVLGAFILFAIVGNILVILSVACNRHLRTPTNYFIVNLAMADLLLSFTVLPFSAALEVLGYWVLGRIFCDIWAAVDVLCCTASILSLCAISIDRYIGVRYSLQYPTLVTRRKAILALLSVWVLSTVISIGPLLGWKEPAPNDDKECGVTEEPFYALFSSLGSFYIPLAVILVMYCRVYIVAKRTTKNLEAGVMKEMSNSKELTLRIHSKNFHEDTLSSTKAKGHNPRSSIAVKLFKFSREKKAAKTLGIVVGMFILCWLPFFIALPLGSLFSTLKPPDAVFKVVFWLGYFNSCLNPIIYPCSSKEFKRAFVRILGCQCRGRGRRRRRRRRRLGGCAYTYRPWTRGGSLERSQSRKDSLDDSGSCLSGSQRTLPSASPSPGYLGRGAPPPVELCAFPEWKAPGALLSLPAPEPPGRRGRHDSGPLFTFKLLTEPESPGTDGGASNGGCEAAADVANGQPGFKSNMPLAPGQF
Beta-3 adrenergic receptor (Homo sapiens), sequence (P13945 whole entry, looked up): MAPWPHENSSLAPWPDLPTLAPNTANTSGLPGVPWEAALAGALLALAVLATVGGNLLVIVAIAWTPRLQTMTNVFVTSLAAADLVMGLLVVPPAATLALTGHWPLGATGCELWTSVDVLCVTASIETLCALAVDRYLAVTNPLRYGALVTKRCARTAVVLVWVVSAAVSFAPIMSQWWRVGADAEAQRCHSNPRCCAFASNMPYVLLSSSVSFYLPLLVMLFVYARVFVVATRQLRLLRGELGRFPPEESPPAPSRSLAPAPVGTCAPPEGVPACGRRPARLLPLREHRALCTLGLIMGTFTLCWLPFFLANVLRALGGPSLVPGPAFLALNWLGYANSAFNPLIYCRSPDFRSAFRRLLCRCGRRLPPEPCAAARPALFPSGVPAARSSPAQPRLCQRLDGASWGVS
Muscarinic acetylcholine receptor M5 (Homo sapiens), sequence (P08912 whole entry): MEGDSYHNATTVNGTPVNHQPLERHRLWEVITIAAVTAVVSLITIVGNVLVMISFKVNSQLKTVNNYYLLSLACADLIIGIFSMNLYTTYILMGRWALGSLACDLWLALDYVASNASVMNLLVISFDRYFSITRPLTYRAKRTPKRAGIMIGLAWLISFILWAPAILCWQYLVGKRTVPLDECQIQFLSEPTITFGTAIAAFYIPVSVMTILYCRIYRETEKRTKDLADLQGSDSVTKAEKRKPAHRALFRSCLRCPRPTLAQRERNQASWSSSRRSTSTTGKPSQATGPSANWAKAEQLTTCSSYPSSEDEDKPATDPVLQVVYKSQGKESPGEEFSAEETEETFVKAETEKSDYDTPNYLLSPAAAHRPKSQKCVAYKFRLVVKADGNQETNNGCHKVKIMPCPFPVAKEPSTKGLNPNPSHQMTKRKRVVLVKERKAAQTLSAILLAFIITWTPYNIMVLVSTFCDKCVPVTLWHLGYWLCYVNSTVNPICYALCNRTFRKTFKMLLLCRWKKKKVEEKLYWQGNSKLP
Alpha-2C adrenergic receptor, sequence (P18825 whole entry): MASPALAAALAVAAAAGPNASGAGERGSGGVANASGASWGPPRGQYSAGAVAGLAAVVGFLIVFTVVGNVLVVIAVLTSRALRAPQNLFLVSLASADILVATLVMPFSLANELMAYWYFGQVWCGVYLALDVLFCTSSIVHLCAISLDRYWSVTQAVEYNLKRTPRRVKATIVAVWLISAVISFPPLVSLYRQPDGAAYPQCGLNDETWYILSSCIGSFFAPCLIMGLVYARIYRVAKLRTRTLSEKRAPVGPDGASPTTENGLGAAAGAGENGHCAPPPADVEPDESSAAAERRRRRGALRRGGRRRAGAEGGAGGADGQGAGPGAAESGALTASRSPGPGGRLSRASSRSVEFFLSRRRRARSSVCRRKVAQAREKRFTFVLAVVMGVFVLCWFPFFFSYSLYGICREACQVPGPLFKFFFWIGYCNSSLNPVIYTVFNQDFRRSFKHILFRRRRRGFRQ
5-hydroxytryptamine receptor 1A, sequence (P08908 whole entry): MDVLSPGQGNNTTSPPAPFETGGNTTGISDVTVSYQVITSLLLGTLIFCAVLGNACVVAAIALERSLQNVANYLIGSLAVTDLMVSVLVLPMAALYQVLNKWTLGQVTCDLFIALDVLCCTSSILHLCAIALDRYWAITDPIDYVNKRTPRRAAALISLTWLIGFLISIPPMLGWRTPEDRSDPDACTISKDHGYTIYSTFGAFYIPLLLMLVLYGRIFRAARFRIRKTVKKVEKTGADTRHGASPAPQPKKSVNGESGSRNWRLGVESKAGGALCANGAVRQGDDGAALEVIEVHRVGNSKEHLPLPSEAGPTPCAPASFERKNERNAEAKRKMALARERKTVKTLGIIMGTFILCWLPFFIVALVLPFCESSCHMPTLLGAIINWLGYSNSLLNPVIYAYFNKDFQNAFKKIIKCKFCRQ
Alpha-2A adrenergic receptor, sequence (P08913 whole entry): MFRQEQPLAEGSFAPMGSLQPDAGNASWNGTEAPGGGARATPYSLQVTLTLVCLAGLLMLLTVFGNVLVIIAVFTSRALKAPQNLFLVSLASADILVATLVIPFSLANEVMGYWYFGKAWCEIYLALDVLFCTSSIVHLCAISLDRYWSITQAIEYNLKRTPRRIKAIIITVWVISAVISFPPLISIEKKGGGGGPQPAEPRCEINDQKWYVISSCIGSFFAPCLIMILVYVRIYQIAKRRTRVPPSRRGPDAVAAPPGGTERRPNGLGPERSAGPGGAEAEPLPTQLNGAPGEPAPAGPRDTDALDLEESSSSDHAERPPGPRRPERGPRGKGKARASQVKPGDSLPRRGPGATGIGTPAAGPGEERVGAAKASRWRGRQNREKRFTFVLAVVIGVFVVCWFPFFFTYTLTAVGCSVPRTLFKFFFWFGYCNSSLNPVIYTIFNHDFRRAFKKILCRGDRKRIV
Translocator protein (Rattus norvegicus), sequence (P16257 whole entry, looked up): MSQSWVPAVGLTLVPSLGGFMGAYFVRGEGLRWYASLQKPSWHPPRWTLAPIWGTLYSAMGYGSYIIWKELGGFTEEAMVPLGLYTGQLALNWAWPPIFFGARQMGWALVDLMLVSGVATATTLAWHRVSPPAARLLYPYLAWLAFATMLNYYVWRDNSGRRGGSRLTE

- Activity [1]: inactive
- Ki [2]: 429 nM
- Ki [3]: 29 nM
- Ki [4]: 102 nM
- Ki [5]: 165 nM
- Ki [6]: 26 nM
- IC50 [7]: 794 nM
- Ki [8]: 821 nM
- Ki (D(3) dopamine receptor): 498 nM
- Ki [9]: 498 nM
- Ki (Histamine H1 receptor): 1300 nM
- Ki (Mu-type opioid receptor): 341 nM
- Ki [10]: 176 nM
- Activity [11]: inactive
- Activity [12]: inactive
- Activity [13]: inactive
- Activity (Rattus norvegicus [14]): inactive
- Activity (Rattus norvegicus [15]): inactive
- Activity [16]: inactive
- Activity [17]: inactive
- Activity [18]: inactive
- Activity [19]: inactive
- Activity [20]: inactive
- Activity [21]: inactive
- Activity [22]: inactive
- IC50 [23]: 12.6 µM
- inhibition [24]: > 50%
- inhibition [25]: > 50%
- Activity [26]: inactive
SMILES: COc1ccc(CCN(CCCc2ccccc2)CCc2ccc3c(c2)OCO3)cc1OC
- Ratio Ki (HEK293): 15
